How the values were obtained:
[1] = test system: Group B streptococcus; experiment: Dalbavancin MIC of baseline isolates; format: cell-based
[2] = test system: S. aureus; experiment: Dalbavancin MIC of baseline isolates; format: cell-based; conditions: All S. aureus
[3] = test system: Gram-positive pathogen identified at baseline; experiment: Phase II SSTI trial: microbiological response; format: in vivo, human; conditions: for Success rate by pathogen: MITT at FU; for Microbiologic success rate: MITT population; for Eradication/presumed eradication rate, all organisms / S. aureus eradication rate: microbiologically-evaluable population at FU
Description: This randomized, controlled study evaluated the safety and efficacy of two dose regimens of dalbavancin.
There were 62 patients randomized into the study; all received at least one dose of study medication. Four study populations were evaluated for safety and efficacy and were defined as follows: The intent-to-treat (ITT) population included all patients who received at least one dose of study drug (all randomized study subjects).
Microbiological outcome, a secondary efficacy variable, was assessed in the subpopulation of patients who had microbiologically documented SSTI (i.e., at least one identified baseline pathogen). A microbiologic response was assessed for each Gram-positive pathogen identified at baseline (i.e., eradication, presumed eradication, persistence, presumed persistence). For patients for whom follow-up cultures were not performed, the microbiologic responses for baseline pathogens were presumed on the basis of the clinical response. Microbiologic response by patient at the EOT and FU visits was graded as success (i.e., all Gram-positive organisms eradicated or presumed eradicated) or failure (i.e., at least one Gram-positive organism persisted or presumed to have persisted, multiple pathogens with partial eradication). At both the EOT and FU visits, colonization and superinfection were assessed. At the FU visit, a patient's bacteriological response could also include recurrence.

[4] = test system: Gram-positive isolates, including MRSA; experiment: MIC against Gram-positive isolates / SSTI pathogens; format: cell-based; conditions: FU assessment
[5] = test system: Miscellaneous Streptococcus and nontypeable strains; experiment: Dalbavancin MIC of baseline isolates; format: cell-based
[6] = test system: Streptococcus pyogenes; experiment: Dalbavancin MIC of baseline isolates; format: cell-based
[7] = Phase II SSTI trial: dalbavancin plasma concentrations; format: in vivo, human; conditions: for Mean dalbavancin plasma concentration: two-dose regimen
[8] = molecular target: human albumin (Homo sapiens, UniProt P02768); experiment: Protein binding by isothermal titration microcalorimetry
Description: Integrated heat effects, after correction for heats of dilution, were analyzed by non-linear regression using a simple single-site binding model with the standard Microcal ORIGIN software package. Raw data (μcal/sec) for each injection were integrated to give the total heat effect per addition, then divided by amount of injectant to give kcal/mole of injectant. The same integration was applied for control dilution effects, and this was subtracted from the actual titration data. This provided a differential of the binding curve in which the extent of binding is proportional to the total heat liberated (or absorbed). This was then analyzed by non-linear regression methods in terms of various standard binding models.

[9] = MITT isolates of standard of care group
[10] = MITT isolates of two-dose group
[11] = MITT isolates of single-dose group

Chain of human albumin (P02768 25-609): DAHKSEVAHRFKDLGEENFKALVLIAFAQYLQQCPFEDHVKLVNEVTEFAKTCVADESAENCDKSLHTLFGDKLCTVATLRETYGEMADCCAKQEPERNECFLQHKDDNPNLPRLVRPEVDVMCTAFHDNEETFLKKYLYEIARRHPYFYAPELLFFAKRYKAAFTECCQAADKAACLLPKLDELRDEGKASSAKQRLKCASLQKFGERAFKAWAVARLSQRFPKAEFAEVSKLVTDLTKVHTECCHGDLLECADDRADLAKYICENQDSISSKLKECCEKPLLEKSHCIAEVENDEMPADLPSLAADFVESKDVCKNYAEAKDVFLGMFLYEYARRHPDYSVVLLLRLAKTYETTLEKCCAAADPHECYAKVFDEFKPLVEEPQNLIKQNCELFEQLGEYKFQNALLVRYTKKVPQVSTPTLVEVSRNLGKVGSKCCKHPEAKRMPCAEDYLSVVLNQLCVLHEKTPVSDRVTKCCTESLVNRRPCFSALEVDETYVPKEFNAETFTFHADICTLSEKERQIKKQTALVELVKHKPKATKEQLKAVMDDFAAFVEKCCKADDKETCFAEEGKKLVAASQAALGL

CN[C@H]1C(=O)N[C@@H]2Cc3ccc(cc3)Oc3cc4cc(c3O[C@@H]3O[C@H](C(=O)O)[C@@H](O)[C@H](O)[C@H]3NC(=O)CCCCCCCCC(C)C)Oc3ccc(cc3Cl)[C@@H](O)[C@@H]3NC(=O)[C@H](NC(=O)[C@@H]4NC(=O)[C@@H](NC2=O)c2cc(cc(O)c2Cl)Oc2cc1ccc2O)c1ccc(O)c(c1)-c1c(O[C@H]2O[C@H](CO)[C@@H](O)[C@H](O)[C@@H]2O)cc(O)cc1[C@@H](C(=O)NCCCN(C)C)NC3=O [Dalbavancin]
Dalbavancin MIC [1, 9]: (0.016) mg/L | Dalbavancin MIC [1, 10]: (0.016) mg/L | Dalbavancin MIC [2, 11]: (0.12) mg/L | Dalbavancin MIC range [2, 9]: (0.016-0.25) mg/L | Dalbavancin MIC [2, 10]: (0.12) mg/L | Success rate by pathogen ([3]; All S. aureus, single-dose (1100 mg)): 5/13 (38%) | Success rate by pathogen ([3]; All S. aureus, two-dose (1000/500 mg)): 9/11 (82%) | Microbiologic success rate ([3]; EOT, single-dose (1100 mg)): 5/14 (35.7) % | Microbiologic success rate ([3]; EOT, two-dose (1000/500 mg)): 10/13 (76.9) % | Microbiologic success rate ([3]; FU, single-dose (1100 mg)): 3/14 (21.4) % | Microbiologic success rate ([3]; FU, two-dose (1000/500 mg)): 9/13 (69.2) % | Success rate by pathogen ([3]; Methicillin-sensitive S. aureus, single-dose (1100 mg)): 2/7 (29%) | Success rate by pathogen ([3]; Methicillin-sensitive S. aureus, two-dose (1000/500 mg)): 5/6 (83%) | Success rate by pathogen ([3]; Miscellaneous streptococcus species, single-dose (1100 mg)): 2/3 (67%) | Success rate by pathogen ([3]; Miscellaneous streptococcus species, two-dose (1000/500 mg)): 4/4 (100%) | Success rate by pathogen ([3]; Total organisms, single-dose (1100 mg)): 7/16 (43.8%) | Success rate by pathogen ([3]; Total organisms, two-dose (1000/500 mg)): 14/16 (87.5%) | Eradication/presumed eradication rate, all organisms ([3]; single-dose): 58% | S. aureus eradication rate ([3]; single-dose): 50% | Eradication/presumed eradication rate, all organisms ([3]; two-dose): 92% | S. aureus eradication rate ([3]; two-dose): 90% | Change in dalbavancin MIC of isolates that persisted [4]: no change | Dalbavancin MIC [5, 11]: (0.016) mg/L | Dalbavancin MIC [5, 9]: (0.016) mg/L | Dalbavancin MIC [5, 10]: (0.016) mg/L | Dalbavancin MIC [6, 9]: (0.016) mg/L | Dalbavancin MIC [6, 10]: (0.016) mg/L | Mean dalbavancin plasma concentration (mean±SD) ([7]; single-dose regimen, Study day 10): 25.2 ± 4.8 mg/L | Mean dalbavancin plasma concentration ([7]; Study day 8 (prior to the second dose)): 30.4 ± 8.2 mg/L | Mean dalbavancin plasma concentration ([7]; Study day 20): 21.2 ± 10.0 mg/L | Mean dalbavancin plasma concentration ([7]; Study day 34): 9.0 ± 4.4 mg/L | binding stoichiometry modeling (drug:protein) [8]: two dalbavancin molecules are bound to one molecule of protein | Calculated percent binding ([8]; antibiotic 500 μM, human serum albumin 6×10^−4 M): 98.0% | N (binding stoichiometry, protein to dalbavancin) ([8]; in all cases (all proteins)): < 1

Source: patent US20050004011A1, “Compositions and methods for treating bacterial infections with protein-dalbavancin complexes” (priority 2002, published 2005)
